Measurements reported in ChEMBL document CHEMBL4673360, “Discovery of novel HIV-1 integrase-LEDGF/p75 allosteric inhibitors based on a pyridine scaffold forming an intramolecular hydrogen bond” (Bioorg Med Chem Lett, 2021).

Legend:
[1] = tested on: Human immunodeficiency virus 1; experiment: Antiviral activity against wild type HIV-1 infected in human MT4 cells by MTT assay; assay type: functional, organism-based; conditions: Human immunodeficiency virus 1, MT4
[2] = Cytotoxicity against human MT4 cells by MTT assay; assay type: cell-based
[3] = tested on: Human immunodeficiency virus 1; experiment: Antiviral activity against HIV-1 harbouring T174I mutant infected in human MT4 cells by MTT assay; assay type: functional, organism-based; conditions: Human immunodeficiency virus 1, MT4
[4] = Oral bioavailability in rat at 1 mg/kg; assay type: ADME, organism-based; conditions: in vivo
[5] = Total clearance in rat at 0.5 mg/kg, iv or 1 mg/kg, po; assay type: ADME, organism-based; conditions: in vivo
[6] = Elimination half-life in rat at 0.5 mg/kg, iv or 1 mg/kg, po; assay type: ADME, organism-based; conditions: in vivo, read-out: LambdaZ (converted)
[7] = AUC in rat at 0.5 mg/kg, iv; assay type: ADME, organism-based; design: dose 0.5 mg/kg; conditions: in vivo
[8] = Metabolic stability in human liver microsomes assessed as parent compound remaining; assay type: ADME, Microsome
[9] = Metabolic stability in rat liver microsomes assessed as parent compound remaining; assay type: ADME, Microsome

`Cc1ccc(-c2c(C)nc(NS(=O)(=O)c3cccc4ccccc34)c(C)c2C(OC(C)(C)C)C(=O)O)cc1C` (stereo not given) gave an EC50 [1] of 0.032 µM, a CC50 [2] of 16 µM and an EC50 [3] of 1 µM.

`Cc1ccc(-c2c(C)nc(NC(=O)NC3CCCCC3)c(C)c2C(OC(C)(C)C)C(=O)O)cc1C` (stereo not given) showed an EC50 [1] of 0.0066 µM, a bioavailability [4] of 9.2% and a clearance [5] of 12.5 mL/min/kg. It also gave a half-life [6] of 1.6 h, an AUC [7] of 127 ng·h/mL and a Stabilty [8] of 65%. The CC50 [2] was 7.9 µM, the Stabilty [9] was 66% and the EC50 [3] was > 1 µM.

In the case of `Cc1nc(NC(=O)NC2CCCCC2)c(C)c(C(OC(C)(C)C)C(=O)O)c1-c1ccc2c(c1)NCCO2` (stereo not given), the EC50 [1] is reported as > 0.1 µM and the CC50 [2] is reported as 30 µM.

`Cc1ccc(-c2c(C)nc(C(=O)NCc3ccccc3)c(C)c2C(OC(C)(C)C)C(=O)O)cc1C` (stereo not given) showed an EC50 [1] of 0.18 µM and a CC50 [2] of 54 µM.

For `COc1ccc(Nc2nc(C)c(-c3ccc(C)c(C)c3)c(C(OC(C)(C)C)C(=O)O)c2C)cc1` (stereo not given), the EC50 [1] was 0.22 µM and the CC50 [2] was 28 µM.

In the case of `Cc1ccc(-c2c(C)nc(NC(=O)NC3CCCCCC3)c(C)c2C(OC(C)(C)C)C(=O)O)cc1C` (stereo not given), the EC50 [1] is reported as 0.011 µM, the CC50 [2] is reported as 7.7 µM and the EC50 [3] is reported as > 1 µM.

`Cc1nc(NC(=O)NC2CCCCC2)c(C)c(C(OC(C)(C)C)C(=O)O)c1-c1ccc(C(F)(F)F)cc1` (stereo not given) gave an EC50 [1] of 0.061 µM, a CC50 [2] of 9.8 µM and an EC50 [3] of 7.7 µM.

In the case of `Cc1ccc(-c2c(C)nc(NC(=O)NC3CCCC3)c(C)c2C(OC(C)(C)C)C(=O)O)cc1C` (stereo not given), the EC50 [1] is reported as 0.0083 µM, the CC50 [2] is reported as 8 µM and the EC50 [3] is reported as > 1 µM.

With `Cc1ccc(-c2c(C)nc(NC(=O)NCCc3ccccc3)c(C)c2C(OC(C)(C)C)C(=O)O)cc1C` (stereo not given) the EC50 [1] was 0.02 µM, the CC50 [2] was 11 µM and the EC50 [3] was > 2 µM.

In the case of `Cc1ccc(-c2c(C)nc(Nc3nc4ccccc4n3C)c(C)c2C(OC(C)(C)C)C(=O)O)cc1C` (stereo not given), the EC50 [1] is reported as 0.19 µM and the CC50 [2] is reported as 14 µM.

For `Cc1ccc(-c2c(C)nc(C(=O)N(C)Cc3ccccc3)c(C)c2C(OC(C)(C)C)C(=O)O)cc1C` (stereo not given), the EC50 [1] was 0.36 µM and the CC50 [2] was 77 µM.

`Cc1ccc(-c2c(C)nc(Nc3nc4ccccc4s3)c(C)c2C(OC(C)(C)C)C(=O)O)cc1C` (stereo not given) showed an EC50 [1] of 0.35 µM and a CC50 [2] of 6.6 µM.

With `COc1ccc(-c2c(C)nc(NC(=O)NC3CCCCC3)c(C)c2C(OC(C)(C)C)C(=O)O)cc1` (stereo not given) the EC50 [1] was 0.01 µM, the CC50 [2] was 19 µM and the EC50 [3] was 0.75 µM.

In the case of `Cc1ccc(-c2c(C)nc(NC(=O)Nc3ccccc3)c(C)c2C(OC(C)(C)C)C(=O)O)cc1C` (stereo not given), the EC50 [1] is reported as 0.011 µM, the CC50 [2] is reported as 9.9 µM and the EC50 [3] is reported as > 1 µM.

For `Cc1ccc(-c2c(C)nc(NC(=O)NCc3ccccc3)c(C)c2C(OC(C)(C)C)C(=O)O)cc1C` (stereo not given), the EC50 [1] was 0.035 µM, the CC50 [2] was 17 µM and the EC50 [3] was > 4 µM.

For `Cc1ccc(-c2c(C)nc(NC(=O)NC3CCOCC3)c(C)c2C(OC(C)(C)C)C(=O)O)cc1C` (stereo not given), the EC50 [1] was 0.045 µM, the CC50 [2] was 29 µM and the EC50 [3] was > 5 µM.

Work on `Cc1nc(NC(=O)NC2CCCCC2)c(C)c(C(OC(C)(C)C)C(=O)O)c1-c1ccc2c(c1)CCCO2` (stereo not given) yielded an EC50 [1] of 0.021 µM, a CC50 [2] of 17 µM and an EC50 [3] of 0.56 µM.

Work on `Cc1nc(NC(=O)NC2CCCCC2)c(C)c(C(OC(C)(C)C)C(=O)O)c1-c1ccc(Cl)cc1` (stereo not given) yielded an EC50 [1] of 0.017 µM, a CC50 [2] of 16 µM and an EC50 [3] of 1.8 µM.

For `Cc1nc(NC(=O)NC2CCCCC2)c(C)c(C(OC(C)(C)C)C(=O)O)c1-c1ccc2c(c1C)CCCO2` (stereo not given), the EC50 [1] was 0.0066 µM, the CC50 [2] was 11 µM and the EC50 [3] was 0.27 µM.

With `Cc1nc2ccccc2c(-c2ccc3c4c(ccnc24)CCO3)c1[C@H](OC(C)(C)C)C(=O)O` [BI-224436] the EC50 [1] was 0.022 µM, the CC50 [2] was > 50 µM and the EC50 [3] was > 5 µM.
